# What was measured:
# [1] = tested on: Seedless watermelon plant seedlings; test: 2021 Watermelon Trial; assay type: in vivo
# From the text: (§1) The base formulation used in greenhouse trials was an aqueous solution of L-theanine (20% by weight). The base formulation was further diluted with water as detailed for each trial. Seedless watermelon plant seedlings (n=4/treatment) were planted in commercial potting soil and then were transplanted to 3-gallon pots. L-theanine treatment was applied at the equivalent of 1 pint in 100 gallons of water (125 ppm) and sprayed till runoff. Two treatment applications were made to the plants approximately 14 days apart.
# [2] = tested on: Zinnia plants; test: 2021 Zinnia Greenhouse Trial; assay type: in vivo
# From the text: as §1, with “trial. Zinna seeds (n=6/treatment)” for “trial. Seedless watermelon plant seedlings (n=4/treatment)”, “then” for “then were”, “transplanted into” for “transplanted to”, “Two treatments” for “Two treatment applications”
# [3] = foliar spray 125 ppm till runoff, two applications ~14 days apart
# [4] = vs untreated check, 125 ppm foliar, two applications
# [5] = foliar spray 125 ppm till runoff, two treatments ~14 days apart
# [6] = over the untreated check, 125 ppm foliar, two treatments
structure (smiles),measurement,setting,value
CCNC(=O)CC[C@H](N)C(=O)O [L-theanine],Fruit/Vine (count),[1]; [3],9.50 a count
same,Vine Length,[1]; [3],51.0 a cm
same,increase in average fruit per vine,[1]; [4],4.75
same,"increase in average fruit per vine, percent",[1]; [4],100.0%
same,increase in vine development,[1]; [4],14.5 cm
same,"increase in vine development, percent",[1]; [4],39.7%
same,Basal Diameter,[2]; [5],6.45 a mm
same,Flower (count),[2]; [5],10.17 count
same,Plant Height,[2]; [5],35.83 a cm
same,increase in basal diameter,[2]; [6],1.2 mm
same,"increase in basal diameter, percent",[2]; [6],22.9%
same,increase in flower counts,[2]; [6],6.0
same,"increase in flower counts, percent",[2]; [6],143.9%
same,increase in plant height,[2]; [6],9.66 cm
same,"increase in plant height, percent",[2]; [6],36.9%

# — patent US20230172203A1, “PLANT METABOLISM PROMOTING COMPOSITIONS AND METHODS OF USE” (Panoptic Ag Solutions LLC, priority 2021, published 2023)
